Laboratory results reported in patent US4714698A, “8-alkylthio-2-piperazino-pyrimido[5,4-d]-pyrimidines” (Dr. Karl Thomae GmbH, priority 1984, dated 1987).

Legend:
[1] = biological target: phosphodiesterase from human thrombocytes; test: PDE inhibition (PDE assay), phosphodiesterase from human thrombocytes, 3H-cAMP substrate; assay type: biochemical; conditions: concentration which inhibited PDE activity by 50%, 1 μmol/l 3H-cAMP as substrate, read-out: PDE inhibition ED50, Human thrombocytes
Method: Phosphodiesterase was obtained from human thrombocytes by an analogous method.
(§1) The PDE inhibition by the test substances was determined using 1 μmol/1 of ^3 H-cAMP as substrate. The PDE inhibition was determined by measuring the degradation of the substrate ^3 H-cAMP used into ^3 H-AMP by comparison with the control without the test substance. The ^3 H-AMP formed was separated from the remaining ^3 H-cAMP by precipitation with zinc sulphate-barium hydroxide.
(§2) The ED50, i.e. the concentration which inhibited the PDE activity by 50%, was calculated by linear regression analysis.

[2] = tested on: phosphodiesterase from B16 melanoma tissue (B16 tumour cells); test: PDE inhibition (PDE assay), phosphodiesterase from B16 melanoma tissue, 3H-cAMP substrate; assay type: biochemical, mice; conditions: concentration which inhibited PDE activity by 50%, 1 μmol/l 3H-cAMP as substrate, read-out: PDE inhibition ED50, B16 tumour cells
Method: The phosphodiesterase was obtained from B16 melanoma tissue from mice by centrifuging the homogenised tissue at 5000×g (15 minutes at 4° C.). The tissues were homogenized by repeated freezing and thawing and homogenisation according to Potter-Elvehjem or by ultrasound. The homogenised supernatant containing the PDE was deep frozen and stored in batches at -25° C.
as §1, §2

[3] = Tolerability / lethality in mice; assay type: in vivo; conditions: 10 animals
Description: Moreover, the new compounds are well tolerated.

Row | SMILES | IC50 [1] | IC50 [2] | deaths of animals ([3]; 20 mg/kg i.v.) | deaths of animals ([3]; 100 mg/kg p.o.)
1 | CCCCCCNc1nc(N2CCNCC2)nc2c(SC)ncnc12 [Substance C, 4-n-Hexylamino-8-methylthio-2-piperazino-pyrimido[5,4-d]pyrimidine] | 1200 nM | 120 nM | – | –
2 | CSc1ncnc2c(N3CCCC3)nc(N3CCNCC3)nc12 [Substance A, 8-Methylthio-2-piperazino-4-pyrrolidino-pyrimido[5,4-d]pyrimidine] | 1600 nM | 66 nM | none of the 10 animals used died | none of the 10 animals used died
3 | CCN(CC)c1nc(N2CCNCC2)nc2c(SC)ncnc12 [Substance B, 4-Diethylamino-8-methylthio-2-piperazino-pyrimido[5,4-d]pyrimidine] | 1300 nM | 37 nM | – | –
4 | CSc1ncnc2c(N3CCCCCC3)nc(N3CCNCC3)nc12 [Substance D, 4-Hexamethyleneimino-8-methylthio-2-piperazinopyrimido[5,4-d]pyrimidine] | 1700 nM | 28 nM | – | –
